Test results from ChEMBL document CHEMBL1129198, “Synthesis and antibacterial activity of lipophilic carbapenems with anti-MRSA activity” (Bioorg Med Chem Lett, 1996).
≈ marks a conversion by molar mass, not a printed value.

Experiments:
Enterococcus faecium = experiment: Antibacterial activity against vancomycin-resistant Enterococcus faecium 628016.; type: functional
Enterococcus faecalis = experiment: Antibacterial activity against vancomycin-sensitive Enterococcus faecalis 683026.; type: functional
Staphylococcus aureus [1] = experiment: Antibacterial activity against methicillin-resistant Staphylococcus aureus 601053.; type: functional
Staphylococcus aureus [2] = experiment: Antibacterial activity against methicillin-resistant Staphylococcus aureus 607004.; type: functional
Staphylococcus aureus [3] = experiment: Antibacterial activity against methicillin-sensitive Staphylococcus aureus 601055.; type: functional
Staphylococcus aureus [4] = experiment: Antibacterial activity against methicillin-sensitive Staphylococcus aureus 601055.(grown in the presence of blood); type: functional
Streptococcus pneumoniae = experiment: Antibacterial activity against penicillin-resistant Streptococcus pneumoniae 671319; type: functional
[5] = tested on: Staphylococcus haemolyticus; experiment: Antibacterial activity against methicillin-resistant Staphylococcus haemolyticus 601117; type: functional
[6] = In vitro binding affinity towards PBP2'' of Staphylococcus aureus using [14C]benzylpenicillin as radioligand
Staphylococcus aureus [7] = experiment: Compound was tested for its binding affinity against PBP2' receptor in Staphylococcus aureus.; type: functional, organism-based
Staphylococcus aureus [8] = experiment: Compound was tested for its binding affinity against PBP2'' receptor in Staphylococcus aureus. Values taken from literature.; type: functional
Staphylococcus aureus [9] = experiment: Compound was tested for its antibacterial activity against methicillin-resistant Staphylococcus aureus.; type: functional

C[C@@H](O)[C@H]1C(=O)N2C(C(=O)O)=C(COc3ccc4occ(CN(C)C)c(=O)c4c3)[C@H](C)[C@H]12
MIC (Enterococcus faecium): 2 µg/mL (≈ 4.52 µM) | MIC (Enterococcus faecalis): 0.5 µg/mL (≈ 1.13 µM) | MIC (Staphylococcus aureus [1]): 0.5 µg/mL (≈ 1.13 µM) | MIC (Staphylococcus aureus [2]): 4 µg/mL (≈ 9.04 µM) | MIC (Staphylococcus aureus [3]): 0.06 µg/mL (≈ 0.136 µM) | MIC (Staphylococcus aureus [4]): 0.016 µg/mL | MIC (Streptococcus pneumoniae): 0.12 µg/mL (≈ 0.271 µM) | MIC [5]: 2 µg/mL (≈ 4.52 µM)

C[C@@H](O)[C@H]1C(=O)N2C(C(=O)O)=C(CNC(=O)c3ccc4ccccc4c3)[C@H](C)[C@H]12
MIC (Enterococcus faecium): 32 µg/mL (≈ 81.1 µM) | MIC (Enterococcus faecalis): 16 µg/mL (≈ 40.6 µM) | MIC (Staphylococcus aureus [1]): 8 µg/mL (≈ 20.3 µM) | MIC (Staphylococcus aureus [2]): 128 µg/mL (≈ 325 µM) | MIC (Staphylococcus aureus [3]): 0.5 µg/mL (≈ 1.27 µM) | MIC (Staphylococcus aureus [4]): 0.25 µg/mL | MIC (Streptococcus pneumoniae): 4 µg/mL (≈ 10.1 µM) | MIC [5]: 128 µg/mL (≈ 325 µM)

C[C@@H](O)[C@H]1C(=O)N2C(C(=O)O)=C(COc3ccc4ccccc4c3)[C@H](C)[C@H]12
MIC (Enterococcus faecium): 64 µg/mL (≈ 174 µM) | MIC (Enterococcus faecalis): 128 µg/mL (≈ 348 µM) | MIC (Staphylococcus aureus [1]): 0.25 µg/mL (≈ 0.68 µM) | MIC (Staphylococcus aureus [2]): 4 µg/mL (≈ 10.9 µM) | MIC (Staphylococcus aureus [3]): 0.016 µg/mL (≈ 0.0435 µM) | MIC (Staphylococcus aureus [4]): 32 µg/mL | MIC (Streptococcus pneumoniae): 4 µg/mL (≈ 10.9 µM) | MIC [5]: 2 µg/mL (≈ 5.44 µM)

Cc1nc2ccc(SCC3=C(C(=O)O)N4C(=O)[C@H]([C@@H](C)O)[C@H]4[C@H]3C)cc2s1
MIC (Enterococcus faecium): 8 µg/mL (≈ 19.8 µM) | MIC (Enterococcus faecalis): 2 µg/mL (≈ 4.94 µM) | MIC (Staphylococcus aureus [1]): 2 µg/mL (≈ 4.94 µM) | MIC (Staphylococcus aureus [2]): 4 µg/mL (≈ 9.89 µM) | MIC (Staphylococcus aureus [3]): 0.03 µg/mL (≈ 0.0742 µM) | MIC (Staphylococcus aureus [4]): 0.016 µg/mL | MIC (Streptococcus pneumoniae): 0.06 µg/mL (≈ 0.148 µM) | MIC [5]: 4 µg/mL (≈ 9.89 µM)

C[C@@H](O)[C@H]1C(=O)N2C(C(=O)O)=C(SCc3ccc4ccccc4c3)[C@H](C)[C@H]12
MIC (Enterococcus faecium): 8 µg/mL (≈ 20.9 µM) | MIC (Enterococcus faecalis): 2 µg/mL (≈ 5.22 µM) | IC50 [6]: 9.5 µg/mL (≈ 24.8 µM) | IC50 (Staphylococcus aureus [7]): 9.5 µg/mL (≈ 24.8 µM) | IC50 (Staphylococcus aureus [8]): 2 µg/mL (≈ 5.22 µM) | MIC (Staphylococcus aureus [1]): 1 µg/mL (≈ 2.61 µM) | MIC (Staphylococcus aureus [2]): 1 µg/mL (≈ 2.61 µM) | MIC (Staphylococcus aureus [3]): 0.06 µg/mL (≈ 0.156 µM) | MIC (Staphylococcus aureus [4]): 0.03 µg/mL | MIC (Streptococcus pneumoniae): 0.06 µg/mL (≈ 0.156 µM) | MIC [5]: 2 µg/mL (≈ 5.22 µM)

C[C@@H](O)[C@H]1C(=O)N2C(C(=O)O)=C(COc3ccc4occc(=O)c4c3)[C@H](C)[C@H]12
MIC (Enterococcus faecium): 2 µg/mL (≈ 5.19 µM) | MIC (Enterococcus faecalis): 2 µg/mL (≈ 5.19 µM) | MIC (Staphylococcus aureus [1]): 0.25 µg/mL (≈ 0.649 µM) | MIC (Staphylococcus aureus [2]): 2 µg/mL (≈ 5.19 µM) | MIC (Staphylococcus aureus [3]): 0.016 µg/mL (≈ 0.0415 µM) | MIC (Staphylococcus aureus [4]): 0.016 µg/mL | MIC (Streptococcus pneumoniae): 0.03 µg/mL (≈ 0.0778 µM) | MIC [5]: 2 µg/mL (≈ 5.19 µM)

C[C@@H](O)[C@H]1C(=O)N2C(C(=O)O)=C(CSc3ccc4ccccc4c3)[C@H](C)[C@H]12
MIC (Enterococcus faecium): 128 µg/mL (≈ 334 µM) | MIC (Enterococcus faecalis): 128 µg/mL (≈ 334 µM) | MIC (Staphylococcus aureus [1]): 0.5 µg/mL (≈ 1.3 µM) | MIC (Staphylococcus aureus [2]): 4 µg/mL (≈ 10.4 µM) | MIC (Staphylococcus aureus [3]): 0.016 µg/mL (≈ 0.0417 µM) | MIC (Staphylococcus aureus [4]): 32 µg/mL | MIC (Streptococcus pneumoniae): 1 µg/mL (≈ 2.61 µM) | MIC [5]: 2 µg/mL (≈ 5.22 µM)

C[C@@H](O)[C@H]1C(=O)N2C(C(=O)O)=C(SCCNC(=O)c3ccc4ccccc4c3)[C@H](C)[C@H]12
MIC (Enterococcus faecium): 8 µg/mL (≈ 18.2 µM) | MIC (Enterococcus faecalis): 4 µg/mL (≈ 9.08 µM) | MIC (Staphylococcus aureus [1]): 4 µg/mL (≈ 9.08 µM) | MIC (Staphylococcus aureus [2]): 64 µg/mL (≈ 145 µM) | MIC (Staphylococcus aureus [3]): 0.13 µg/mL (≈ 0.295 µM) | MIC (Staphylococcus aureus [4]): 0.13 µg/mL | MIC (Streptococcus pneumoniae): 0.25 µg/mL (≈ 0.568 µM) | MIC [5]: 256 µg/mL (≈ 581 µM)

C[C@@H](O)[C@H]1C(=O)N2C(C(=O)O)=C(CSc3ccc4ccccc4n3)[C@H](C)[C@H]12
MIC (Enterococcus faecium): 1 µg/mL (≈ 2.6 µM) | MIC (Enterococcus faecalis): 4 µg/mL (≈ 10.4 µM) | MIC (Staphylococcus aureus [1]): 0.13 µg/mL (≈ 0.338 µM) | MIC (Staphylococcus aureus [2]): 4 µg/mL (≈ 10.4 µM) | MIC (Staphylococcus aureus [3]): 0.016 µg/mL (≈ 0.0416 µM) | MIC (Staphylococcus aureus [4]): 0.03 µg/mL | MIC (Streptococcus pneumoniae): 0.06 µg/mL (≈ 0.156 µM) | MIC [5]: 0.5 µg/mL (≈ 1.3 µM)

C[C@@H](O)[C@H]1C(=O)N2C(C(=O)O)=C(Sc3cccc4ccccc34)[C@H](C)[C@H]12
MIC (Enterococcus faecium): 32 µg/mL (≈ 86.6 µM) | MIC (Enterococcus faecalis): 16 µg/mL (≈ 43.3 µM) | MIC (Staphylococcus aureus [1]): 1 µg/mL (≈ 2.71 µM) | MIC (Staphylococcus aureus [2]): 8 µg/mL (≈ 21.7 µM) | MIC (Staphylococcus aureus [3]): 0.06 µg/mL (≈ 0.162 µM) | MIC (Staphylococcus aureus [4]): 0.06 µg/mL | MIC (Streptococcus pneumoniae): 1 µg/mL (≈ 2.71 µM) | MIC [5]: 8 µg/mL (≈ 21.7 µM)

C[C@@H](O)[C@H]1C(=O)N2C(C(=O)O)=C(CSc3ccc4c(c3)CC(=O)N4C)[C@H](C)[C@H]12
MIC (Enterococcus faecium): 8 µg/mL (≈ 19.9 µM) | MIC (Enterococcus faecalis): 4 µg/mL (≈ 9.94 µM) | MIC (Staphylococcus aureus [1]): 4 µg/mL (≈ 9.94 µM) | MIC (Staphylococcus aureus [2]): 8 µg/mL (≈ 19.9 µM) | MIC (Staphylococcus aureus [3]): 0.12 µg/mL (≈ 0.298 µM) | MIC (Staphylococcus aureus [4]): 0.06 µg/mL | MIC (Streptococcus pneumoniae): 0.25 µg/mL (≈ 0.621 µM) | MIC [5]: 16 µg/mL (≈ 39.8 µM)

C[C@@H](O)[C@H]1C(=O)N2C(C(=O)O)=C(SCCNC=N)C[C@H]12 [IMIPENEM ANHYDROUS]
MIC (Enterococcus faecium): 4 µg/mL (≈ 13.4 µM) | MIC (Enterococcus faecalis): 2 µg/mL (≈ 6.68 µM) | IC50 [6]: 430 µg/mL (≈ 1440 µM) | IC50 (Staphylococcus aureus [7]): 430 µg/mL (≈ 1440 µM) | IC50 (Staphylococcus aureus [8]): 220 µg/mL (≈ 735 µM) | MIC (Staphylococcus aureus [1]): 8 µg/mL (≈ 26.7 µM) | MIC (Staphylococcus aureus [2]): 64 µg/mL (≈ 214 µM) | MIC (Staphylococcus aureus [3]): 0.03 µg/mL (≈ 0.1 µM) | MIC (Staphylococcus aureus [4]): 0.015 µg/mL | MIC (Staphylococcus aureus [9]): 128 µg/mL (≈ 428 µM) | MIC (Streptococcus pneumoniae): 0.12 µg/mL (≈ 0.401 µM) | MIC [5]: 64 µg/mL (≈ 214 µM)
